According to patent EP0252983B1, “SALTS OF N-(VINYLOXIETHYL)DITHIOCARBAMIC ACID, METHOD OF OBTAINING THEREOF AND […] ON THEM” (priority 1985, dated 1987):
Read-outs that look alike come from different tables or passages of the source.

Key:
Psoroptes cuniculi = assay: Acaricidal activity on isolated mites; type: in vivo
Protocol: Die akarizide Aktivität der Stoffe wird an isolierten Milben Psoroptes cuniculi als Erreger der Psoroptesräude bei Kaninchen geprüft. Von frischen Verkrustungen von Kaninchen mit Psoroptesräude, werden zu diesem Zweck 50 Milbenexemplare (Larven, Nymphen, Imago) gewählt und in Petri-Schalen auf ein Filterpapierblatt übertragen. Dann bringt man auf Milben und die ganze Blattoberfläche 1,5 ml zu prüfende wäßrige Stofflösung in destilliertem Wasser auf. Die Schale wird mit Deckel verschlossen und in einen Thermostat bei 30 °C und Feuchtegehalt von 90 % angeordnet. Der Wirkstoff wird als wäßrige Lösung mit einer zwischen 0,0039 und 4 % liegenden Konzentration genommen. Als Vergleichsmuster dient gleichzeitig eine wäßrige Lösung von Chlorophos. Milben werden im Kontrollversuch (Kontrolle auf Lebensfähigkeit)mit 1,5 ml physiologischer Lösung behandelt und in einen anderen Thermostat unter gleichen Temperatur- und Feuchtigkeitsbedingungen aufgestellt.
Nach 1, 2, 4, 6 Stunden und alle 24 Stunden betrachtet man die Milben im Mikroskop und zählt die toten Milben. Aufgrund der Milbenvernichtung durch einen 24-stündigen Kontakt mit dem Wirkstoff ermittelt man die LK-50 Werte. Die Versuche werden 5mal wiederholt. Arithmetische Mittelwerte gibt Tabelle 14 an.

Larven von Fichtenböcken = assay: Insecticidal activity, topical application to larvae; type: in vivo, Fichtenböcke; conditions: 10%ige Lösung
Excerpt: Die hohe insektizide Aktivität von Kalium-N-(vinyloxyathyl)dithiocarbamat und Zink-bis-(N-vinyloxyathyl- dithiocarbamat) wurde in Versuchen an Larven von Fichtenböcken nachgewiesen. Geprüft wurden die 10%igen wäßrigen (oder alkoholischen) Lösungen, welche auf die Kopfbrust von Larven aufgebracht wurden. In Versuchen standen je 20 Larven zur Verfügung. Die Versuche wurden dreimal wiederholt. Die Mortalität wurde nach 1, 24 und 48 Stunden ermittelt. Die insektizide Aktivität der erfindungsgemäßen Stoffe ist bedeutend höher als die von Chlorophos.
Die Prüfungen auf insektizide Aktivität werden an Larven von Fichtenböcken durchgeführt. Geprüft werden eine 10%ige wäßrige Lösung von Kalium-N-(vinyloxyäthyl)dithiocarbamat und eine 10%ige alkoholische Lösung von Zink-bis-N-(vinyloxyathyldithiocarbamat). In jedem Versuch stehen je 20 Larven zur Verfügung. Die Mortalität wird nach 1, 24 und 48 Stunden ermittelt. Die zu prüfenden Lösungen werden auf die Kopfbrust von Larven aufgebracht.

Rhizoctonia solani [1] = assay: Soil fungicide test (fungal discs in treated soil); type: cell-based; set-up: key: Das Vorhandensein (+); das Fehlen (-) des wachsenden Myzels um die Scheibe herum; conditions: 160 mg/kg Boden
Protocol: (§1) Eine 50 g schwere Bodenprobe bringt man in ein Glasgefäß ein, sterilisiert innerhalb von 2 Stunden unter einem Druck von 2 atm, gibt dann dem Boden das Präparat als wäßrige Lösung ausgehend von 160 mg/kg zu, wonach in den Boden Scheiben mit Kulturen folgender Pilze Fusarium oxysporum, Verticillium dahliae, Rhizoctonia solani, Pythium ultimum untergebracht werden.
(§2) Nach 24 und 48 Stunden werden die Scheiben in fließendem Wasser, dann in sterilem Wasser gewaschen, auf sterilem Filterpapier getrocknet und auf eine reine Agarplatte gelegt. Das Vorhandensein (+) oder das Fehlen (-) des wachsenden Myzels um die Scheibe herum wies auf die Wirksamkeit des Präparats. Als Vergleichsmuster diente dabei Karbathion. Die Prüfergebnisse sind in der Tabelle 5 dargestellt.

Verticillium dahliae [2] = assay: Soil fungicide test (fungal discs in treated soil); type: cell-based; set-up: key: Das Vorhandensein (+); das Fehlen (-) des wachsenden Myzels um die Scheibe herum; conditions: 160 mg/kg Boden
Protocol: as §1, §2

Pythium ultimum = assay: Soil fungicide test (fungal discs in treated soil); type: cell-based; set-up: key: Das Vorhandensein (+); das Fehlen (-) des wachsenden Myzels um die Scheibe herum; conditions: 160 mg/kg Boden
Protocol: as §1, §2

Fusarium oxysporum = assay: Soil fungicide test (fungal discs in treated soil); type: cell-based; set-up: key: Das Vorhandensein (+); das Fehlen (-) des wachsenden Myzels um die Scheibe herum; conditions: 160 mg/kg Boden
Protocol: as §1, §2

Wurzelfäule von Gurken = assay: Cucumber root rot test in treated non-sterile soil; type: in vivo; conditions: 200 kg/ha Wirkstoff
Excerpt: Man nimmt 100 g unsterilen Boden, enthaltend 1 Teil Humus, 1 Teil Rasenboden, 1 Teil Sand, gibt darin ein Präparat, das Zink-bis-(N-vinyloxyäthyldithiocarbamat) ausgehend von 200 kg/ha Wirkstoff enthält.
Das Präparat wird wie folgt hergestellt: Einer gesättigten Lösung des genannten Salzes in Azeton gibt man einige Tropfen Emulgiermittel (hydroxyäthylierte Alkylphenole) zu und verdünnt mit Wasser. Innerhalb von 7 bis 8 Tagen begießt man dann bodenhaltige Gefäße mit Wasser, bis der Boden in einen Zustand gebracht wird, der 60% der vollen Wasseraufnahmekapazität des Feldes beträgt. Nach dieser Zeit erfolgt die Aussaat von Gurkensamen, eingequollen im voraus in einer 0,1%igen KMn04-Lösung innerhalb von 2 Stunden. In jedes Gefäß werden je 10 Samen auf eine Tiefe von 1 bis 1,5 cm gesät. Nach 7 bis 9 Tagen berücksichtigt man die Keimungsfähigkeit von Samen, dann bestimmt man nach 3 Tagen den Befallumfang von Pflanzen durch Wurzelfäule, hervorgerufen durch einen Erregerkomplex. Die Versuche werden viermal wiederholt, als Vergleichsmuster dient Milon. Die Prüfergebnisse zeigt Tabelle 9.

Penicillium funiculosum = assay: Mycelial growth inhibition on agar (contact activity); type: cell-based; conditions: Talaromyces funiculosus, 120 h, Wirkstoffkonzentration 0,003 %
Protocol: (§3) Die Prüfungen werden nach dem Verfahren zur Ermittlung der Kontaktaktivität durchgeführt. Man verwendet das in Wasser gelöste Kalium-N-(vinyloxyäthyl)dithiocarbamat, führt es in ein Nährmedium ein und vergießt auf Petri-Schalen. Nach 24 Stunden wird mit Pilzmyzelium nach einem Stichverfahren geimpft. Dann temperiert man die Schalen innerhalb von 5 Tagen bei einer zwischen 24 und 26 °C liegenden Temperatur und mißt den Durchmesser von Pilzkolonien, ermittelt den Prozentsatz der Hemmung des Myzelwachstums (S) ausgehend von Angaben am 5. Tag nach der Abbott-Formel [drawing 13] worin dc für den Durchmesser der Pilzkolonien, de für den Durchmesser von Pilzkolonien in der Schale stehen, wo ein die zu prüfenden Stoffe enthaltendes Medium vorhanden ist. Dieses Verfahren zur Ermittlung der mikrobiologischen Aktivität ist in anderen Beispielen verwendet.

Stereum hirsutum = assay: as above; type: cell-based; conditions: Stereum hirsutum, 120 h, Wirkstoffkonzentration 0,003 %
Protocol: as §3

Paecilomyces varioti = assay: as above; type: cell-based; conditions: Paecilomyces, 120 h, Wirkstoffkonzentration 0,003 %
Protocol: as §3

Aspergillus niger = assay: as above; type: cell-based
Chaetomium globosum = assay: as above; type: cell-based; conditions: Chaetomium globosum, 120 h; Wirkstoffkonzentration 0,003 %; Tabelle 3; read-out: Mycelhemmung, in %
Protocol: as §3

Venturia inaegualis = assay: as above; type: cell-based; conditions: 120 h, Kartoffel-Glukose-Nährmedium, read-out: Myzelhemmung in %
Protocol: as §3
(§4) Tabelle 2 zeigt die Angaben für die fungizide Aktivität von Kalium-N-(vinyloxyäthyl)dithiocarbamat und bekannten wirksamen Fungiziden Poly arbazin und TMTD. Der zu prüfende Stoff wurde im Laufe der Versuche in Wasser aufgelöst, und die Kulturen wurden auf einem Kartoffel-Glukose-Nährmedium gezüchtet.

Fusarium sambucinum = assay: as above; type: cell-based
Protocol: as §3, §4

Fusarium moniliforme = assay: as above; type: cell-based
Protocol: as §3, §4

Botrytis cinerea = assay: as above; type: cell-based; conditions: 120 h, Kartoffel-Glukose-Nährmedium, read-out: Myzelhemmung in %
Protocol: as §3, §4

Verticillium dahliae [3] = assay: as above; type: cell-based; conditions: 120 h, Kartoffel-Glukose-Nährmedium, read-out: Myzelhemmung in %
Protocol: as §3, §4

Rhizoctonia solani [4] = assay: as above; type: cell-based; conditions: Rhizoctonia solani, 120 h; Wirkstoffkonzentration 0,003 %; Würzeagar; Tabelle 7; read-out: Myzelhemmung in %
Protocol: as §3
Die fungizide Aktivität von Zink-bis-(N-vinyloxyäthyldithiocarbamat) gegen reine Kulturen von Pilzen Fusarium moniliforme, Fusarium sambucinum, Aspergillus niger, Rhizoctonia solani, Cladosporium resinae, Cladosporium cladosporioides, Acremonium cowum, Acremonium charticola, Penicillium chrysogenum, Penicillium charlesii Smith, Penicillium funiculosum, Geotrichum candidum Link, Walrotiela subiculesa, Oidium sp., Paecilomyces varioti, Stereum hirsutum wird gemäß Beispiel 8 untersucht.
(§5) Als Nährmedium dient Würzeagar.

Sphaeropsis malorum = assay: as above; type: cell-based; conditions: 120 h; Wirkstoffkonzentration 0,003 %; Würzeagar; Tabelle 7; read-out: Myzelhemmung in %
Protocol: as §3, §5

[5] = Würzeagar, Tabelle 8, read-out: Myzelhemmung in %
[6] = Tabelle 3, read-out: Mycelhemmung, in %
[7] = Wirkstoffkonzentration 0,003 %, Würzeagar, Tabelle 7

## COP(=O)(OC)C(O)C(Cl)(Cl)Cl (stereo not drawn) [Chlorophos, O,O-Dimethyl-(1-oxy-2,2,2-trichloräthyl)phosphonat, reference compound]
Psoroptes cuniculi; 24-stündiger Kontakt mit dem Wirkstoff
  LK-50 %: 0,8%
Psoroptes cuniculi; Konzentration 0,5 bis 1,0 %
  Vernichtung von 100 % der Milben nach Stunden: 48 Stunden
Psoroptes cuniculi; Konzentration 0,25 %
  Vernichtung von 100 % der Milben nach Stunden: 72 Stunden
Larven von Fichtenböcken; Wirkungsdauer 1 Stunde
  Mortalität von Larven der Fichtenböcke: 0%
Larven von Fichtenböcken; Wirkungsdauer 24 Stunden
  Mortalität von Larven der Fichtenböcke: 20%
Larven von Fichtenböcken; Wirkungsdauer 48 Stunden
  Mortalität von Larven der Fichtenböcke: 57%

## CNC(=S)[S-].[Na+] [Karbathion, reference compound]
Rhizoctonia solani [1]; Haltedauer 24 Stunden
  wachsendes Myzel um die Scheibe: -
Rhizoctonia solani [1]; Haltedauer 48 Stunden
  wachsendes Myzel um die Scheibe: -
Verticillium dahliae [2]; Haltedauer 24 Stunden
  wachsendes Myzel um die Scheibe: -
Verticillium dahliae [2]; Haltedauer 48 Stunden
  wachsendes Myzel um die Scheibe: -
Pythium ultimum; Haltedauer 24 Stunden
  wachsendes Myzel um die Scheibe: -
Pythium ultimum; Haltedauer 48 Stunden
  wachsendes Myzel um die Scheibe: -
Fusarium oxysporum; Haltedauer 24 Stunden
  wachsendes Myzel um die Scheibe: -
Fusarium oxysporum; Haltedauer 48 Stunden
  wachsendes Myzel um die Scheibe: -

## CN1CSC(=S)N(C)C1 [Milon, 3,5-Dimethyltetrahydro-1,3,5-thiadizin-1-thion-2, reference compound]
Wurzelfäule von Gurken; Gurkensamen
  Keimungshäufigkeit in %: 70,3%
Wurzelfäule von Gurken; Wurzelfäule von Gurken
  Entwicklung von Krankheiten in %: 0%

## Oc1c(Cl)c(Cl)c(Cl)c(Cl)c1Cl [Pentachlorphenol, reference compound]
Penicillium funiculosum; [5]
  inhibition of growth at 0.003 %: 100%
Stereum hirsutum; [5]
  inhibition of growth at 0.003 %: 100%
Paecilomyces varioti; [5]
  inhibition of growth at 0.003 %: 100%
Aspergillus niger; Aspergillus niger, 120 h, Wirkstoffkonzentration 0,003 %, Würzeagar, Tabelle 8, read-out: Myzelhemmung in %
  inhibition of growth at 0.003 %: 100%

## O=C(Nc1ccccc1)c1ccccc1O [Salizylanilid, reference compound]
Penicillium funiculosum; [6]
  inhibition of growth at 0.003 %: 100%
Chaetomium globosum
  inhibition of growth at 0.003 %: 100%
Stereum hirsutum; [6]
  inhibition of growth at 0.003 %: 100%
Paecilomyces varioti; [6]
  inhibition of growth at 0.003 %: 100%
Aspergillus niger; Aspergillus niger, 120 h, Wirkstoffkonzentration 0,003 %, Tabelle 3, read-out: Mycelhemmung, in %
  inhibition of growth at 0.003 %: 100%

## CN(C)C(=S)SSC(=S)N(C)C [TMTD, Tetramethylthiuramdisulfid, reference compound]
Venturia inaegualis; Wirkstoffkonzentration 0,01 %
  inhibition of growth at 0.01 %: 100%
Venturia inaegualis; Wirkstoffkonzentration 0,003 %
  inhibition of growth at 0.003 %: 100%
Fusarium sambucinum; Fusarium sambucinum, 120 h, Wirkstoffkonzentration 0,01 %, Kartoffel-Glukose-Nährmedium, read-out: Myzelhemmung in %
  inhibition of growth at 0.01 %: 100%
Fusarium sambucinum; Fusarium sambucinum, 120 h, Wirkstoffkonzentration 0,003 %, Kartoffel-Glukose-Nährmedium, read-out: Myzelhemmung in %
  inhibition of growth at 0.003 %: 100%
Fusarium sambucinum; [7]
  Myzelhemmung in %: 100%
Fusarium moniliforme; Fusarium verticillioides, 120 h, Wirkstoffkonzentration 0,01 %, Kartoffel-Glukose-Nährmedium, read-out: Myzelhemmung in %
  inhibition of growth at 0.01 %: 100%
Fusarium moniliforme; Fusarium verticillioides, 120 h, Wirkstoffkonzentration 0,003 %, Kartoffel-Glukose-Nährmedium, read-out: Myzelhemmung in %
  inhibition of growth at 0.003 %: 100%
Fusarium moniliforme; [7]
  Myzelhemmung in %: 100%
Botrytis cinerea; Wirkstoffkonzentration 0,01 %
  inhibition of growth at 0.01 %: 100%
Botrytis cinerea; Wirkstoffkonzentration 0,003 %
  inhibition of growth at 0.003 %: 100%
Verticillium dahliae [3]; Wirkstoffkonzentration 0,01 %
  inhibition of growth at 0.01 %: 100%
Verticillium dahliae [3]; Wirkstoffkonzentration 0,003 %
  inhibition of growth at 0.003 %: 100%
Rhizoctonia solani [4]
  inhibition of growth at 0.003 %: 100%
Aspergillus niger; Aspergillus niger, 120 h, Wirkstoffkonzentration 0,01 %, Kartoffel-Glukose-Nährmedium, read-out: Myzelhemmung in %
  inhibition of growth at 0.01 %: 100%
Aspergillus niger; Aspergillus niger, 120 h, Wirkstoffkonzentration 0,003 %, Kartoffel-Glukose-Nährmedium, read-out: Myzelhemmung in %
  inhibition of growth at 0.003 %: 100%
Aspergillus niger; [7]
  Myzelhemmung in %: 100%
Sphaeropsis malorum
  inhibition of growth at 0.003 %: 100%
